“Also recorded” adds a separate entry of the source.
Assays:
G6PD = target: T1, G6PD (Homo sapiens, UniProt P11413); assay: G6PD activity assay in colorectal cell lines treated with G6PDi; format: cell-based; conditions: HCT-15 and HT-29 treated with G6PDi at the indicated concentrations
T1 construct: endogenous in cells; host or cells: HCT-15 and HT-29 colorectal cancer cell lines
Procedure: (§1) FIG. 3a colorectal cell lines, HCT-15 and HT-29 were treated with small molecule inhibitor G6PDi at the indicated concentrations and activity of G6PD was assessed. FIGS. 3b-3c Colorectal cancer cell lines, HCT-15 (FIG. 3b) and […] (FIG. 3c) were treated with vehicle or G6PDi-1 (30 μM) and with the indicated doses of asparaginase. Relative viability was assessed by counting viable cells based on trypan blue vital dye staining, with cell counts normalized to those in cells with no-asparaginase controls.

[1] = test system: colorectal cancer cell lines HCT-15 and HT-29; assay: Relative viability (trypan blue viable cell counts) with G6PDi-1 plus asparaginase; format: cell-based, human; conditions: G6PDi-1 30 μM with indicated doses of asparaginase
Procedure: as §1

[2] = test system: Apc-deficient organoids with mutations of Tp53 and Kras; assay: Organoid viability (counting viable organoids); format: cell-based, mouse; conditions: 500 U/L asparaginase + 100 μM G6PDi-1, basal medium
Procedure: FIG. 4a Apc-deficient organoids with mutations of Tp53 and Kras were cultured in basal medium and treated with vehicle, asparaginase (500 U/L), G6PDi-1 (100 μM), or combo (500 U/L asparaginase+100 μM G6PDi-1). FIG. 4b Viability of organoids from FIG. 4a was assessed by counting viable organoids. Data is relative to vehicle treatment group.

[3] = test system: NADP/NADPH ratio in HCT-15 cells; assay: NADP/NADPH ratio, NADP/NADPH Assay Kit (colorimetric, OD 450 nm); format: cell-based, human
Procedure: FIG. 8a, HCT-15 cells were transduced with the indicated shRNAs and with the indicated doses of asparaginase, and the ratio of NADP to NADPH was measured using the NADP/NADPH Assay Kit (abcam product #ab65349). Relative NADP/NADPH ratio was assessed by microplate reader based on colorimetric signals (OD 450 nm), with colorimetric signal normalized to those in shLuc cells with no-asparaginase controls. FIG. 8b, the colorectal cancer cell line HCT-15 was treated with vehicle, asparaginase (500 U/L), G6PDi-1 (30 μM) or combination treatment. […] was measured by NADP/NADPH Assay Kit (ab65349) in indicated cells. Relative NADP/NADPH ratio was assessed by microplate reader based on colorimetric signals (OD 450 nm), with colorimetric signal normalized to those in shLuc cells with no-asparaginase controls.

[4] = test system: NADP/NADPH ratio in HCT-15 G6PD knock-out cells; assay: NADP/NADPH ratio by liquid chromatography/mass spectrometry in G6PD knock-out clones; format: cell-based, human; conditions: HCT-15 G6PD knock-out clones #1 and #2, asparaginase 500 U/L
Procedure: HCT-15 cells that were either G6PD wild-type (WT) parental cells, or G6PD knock-out clones #1 and #2, were treated by vehicle or asparaginase (500 U/L). NADP/NADPH ratio was measured by liquid chromatography/mass spectrometry, and levels are shown normalized to those in HCT-15 cells with no-asparaginase controls.

[5] = test system: ROS levels in HCT-15 cells; assay: Reactive oxygen species levels, Cellular ROS Assay Kit; format: cell-based, human; conditions: G6PD deficient (shG6PD #1 and #2) HCT-15 cells, indicated doses
Procedure: HCT-15 cells were transduced with negative control shRNA (shLuciferase, shLuc) or with two distinct G6PD-targeting shRNAs (shG6PD #1 and #2), treated with asparaginase at the indicated doses, and reactive oxygen species (ROS) levels were assessed using the Cellular ROS Assay Kit (Abcam, product number ab113851) in shLuc (control). ROS levels were measured by fluorescence microplate reader, and were normalized to those in shLuc-transduced, no-asparaginase controls. […] Results are shown as means±SEM; n=3. ****P<0.0001.

[6] = test system: HCT-15 colorectal cancer cells; assay: Relative viability of HCT-15 cells with CRISPR interference of RPIA and RPE, treated with asparaginase; format: cell-based, human; conditions: HCT-15 with dCas9-KRAB and guide RNAs targeting RPIA and RPE promoters
Procedure: HCT-15 colorectal cancer cells were transduced with a so-called CRISPR interference system, consisting of a dCas9-KRAB expression construct and guide RNAs targeting the promoters of RPIA and RPE, to inhibit expression of these enzymes. Cells were then treated with vehicle or asparaginase at the indicated doses. Relative viability was assessed by counting viable cells based on trypan blue vital dye staining, with cell counts normalized to those in cells with no-asparaginase controls.

[7] = test system: HCT-15 colorectal cancer cell line; assay: Relative viability of G6PD knock-out HCT-15 clones treated with asparaginase; format: cell-based, human; conditions: G6PD knock-out (KO) clones of HCT-15 versus wild-type
Procedure: FIG. 5a, Western blot analysis of G6PD protein expression levels in parental HCT-15 cells (G6PD wild-type) and two distinct G6PD knock-out (KO) clones generated by CRISPR-Cas9 induced gene deletion. FIG. 5b, control (G6PD wild-type) or G6PD knockout (KO) clones of the HCT-15 colorectal cancer cell line were treated with asparaginase at the indicated doses, and relative cell viability was assessed by counting the number of live cells based on trypan blue vital dye staining, with cell counts normalized to those in cells with no-asparaginase controls.

[8] = test system: mouse intestinal organoid models of colorectal cancer; assay: Subcutaneous AKP organoid tumors in immunodeficient mice, tumor volume; format: in vivo; conditions: G6pdx-deficient (shG6pdx) organoid tumors, asparaginase 1,000 U/kg
Description: Left panel, Mouse intestinal organoids with Apc deficiency, Kras activating mutations, and Tp53 loss (so-called AKP organoids) were transduced with two distinct control shRNAs (shGFP and shLuciferase), or two distinct shRNAs targeting G6pdx (the mouse G6PD gene). Knockdown of G6pdx protein expression was confirmed by Western blot analysis.
Organoids were transduced with control (shLuc) and two distinct shG6pdx-targeting shRNAs (see FIG. 10), and injected subcutaneously into immunodeficient mice. After engraftment of tumors (defined as tumors reaching a volume of 150 mm3), mice were treated with vehicle (phosphate-buffered saline, PBS) or asparaginase (1,000 U/kg), and tumor volumes were followed. Asparaginase or PBS were re-dosed at the time points indicated by the black arrows.

T1 sequence (P11413 whole entry): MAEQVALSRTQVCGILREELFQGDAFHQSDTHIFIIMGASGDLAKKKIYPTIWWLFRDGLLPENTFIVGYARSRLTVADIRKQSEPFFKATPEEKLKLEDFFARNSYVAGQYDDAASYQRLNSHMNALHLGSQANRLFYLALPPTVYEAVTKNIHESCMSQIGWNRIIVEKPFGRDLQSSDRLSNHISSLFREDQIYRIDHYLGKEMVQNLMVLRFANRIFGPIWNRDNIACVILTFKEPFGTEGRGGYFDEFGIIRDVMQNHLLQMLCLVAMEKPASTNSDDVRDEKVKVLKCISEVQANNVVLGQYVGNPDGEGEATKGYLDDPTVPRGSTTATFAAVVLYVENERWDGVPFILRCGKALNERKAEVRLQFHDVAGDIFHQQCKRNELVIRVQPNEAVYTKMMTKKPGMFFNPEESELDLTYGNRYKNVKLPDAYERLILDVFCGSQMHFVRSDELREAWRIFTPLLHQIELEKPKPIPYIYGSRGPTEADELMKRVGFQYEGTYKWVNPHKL

Row | Substance | G6PD activity (G6PD) | sensitivity to asparaginase (relative viability) [1] | asparaginase sensitivity in organoids (viable organoids relative to vehicle) [2] | relative NADP/NADPH ratio on G6PD inhibition ([3]; HCT-15 cells, G6PDi-1 30 μM) | relative NADP/NADPH ratio on asparaginase treatment ([3]; HCT-15 cells depleted of G6PD (shRNA or G6PDi-1 30 μM), asparaginase 500 U/L or indicated doses) | NADP/NADPH ratio on asparaginase treatment (LC/MS) [4] | reactive oxygen species levels on asparaginase treatment [5] | relative viability on asparaginase treatment [6] | asparaginase sensitivity (relative cell viability) [7] | tumor volume / therapeutic activity [8]
1 | G6PDi-1 | reduce G6PD activity | induce sensitivity to asparaginase | induce asparaginase sensitivity | increased | – | – | – | – | – | –
2 | asparaginase | – | – | – | – | further increased the NADP/NADPH ratio; also recorded: further increase of NADP/NADPH ratio | further increase of NADP/NADPH ratio | not further elevated | None of the differences were statistically significant | induces asparaginase sensitivity | tumor volumes were reduced; also recorded: significant therapeutic activity

Reference: US20240024436A1, “METHOD FOR TREATING CANCER” (CHILDREN'S MEDICAL CENTER CORPORATION, priority 2022, published 2024)
